One experiment relates to 1a-H77 replicon cells. Briefly: HCV 1a replicon inhibitory activity (Renilla luciferase). Type of experiment: cell-based, hepatitis C virus. As to conditions: read-out: IC50 value (95% Confidence Intervals) pM Replicon 1A assay. The protocol:
(§1) Test compounds were solubilised to 4 mM in 100% DMSO. Dilutions were made to the desired starting concentration in 100% DMSO and then 1 in 3 dilutions made, again in 100% DMSO. 0.5 μl of each sample was added to 384-well assay plates. White Lumitrac (Greiner) plates were used for the 1a and 1b replicon assays and black, clear bottomed (Greiner) plates were used for the WST-1 cytotoxity assay.
1a-H77 replicon cells (licensed from Apath LLC) were resuspended to a concentration of 1.4×10^5 cells/ml by addition of pre-warmed assay medium (Dulbecco's Modified Eagle's Medium (DMEM)+10% fetal calf serum (FCS)). 50 μl of this suspension was added to each well of a 384-well assay plate (Lumitrac, Greiner), already containing 0.5 μl of test compound.
All plates were covered with gas permeable seals and incubated at 37° C., 5% CO2 for 48 hours. After 48 hours, the assay plate was removed from the incubator and left to cool to room temperature for 15 to 30 mins. Medium was removed from the wells and 5 μl 1× lysis buffer (from Promega's Renilla Luciferase assay kit, E2820) was added to each well. The plate was incubated at room temperature for 15 mins then 15 μl 1×Assay Substrate (from the same kit) was added to each well. Luminescence was read immediately using an EnVision (Perkin Elmer) plate reader. The half maximal effective concentration (1050) values were calculated by constructing log concentration-response curves for each compound.
(In antiviral work, replicon cells carry a viral genome segment that copies itself.)

Another experiment relates to 1b (con1) replicon cells. Briefly: HCV 1b replicon inhibitory activity (luciferase, Britelite Plus). Type of experiment: cell-based, hepatitis C virus. As to conditions: read-out: IC50 value (95% Confidence Intervals) pM Replicon 1B assay. As to the method: as §1
1b (con1) replicon cells (pFK1389lucubineo/NS3-3′/ET/9B, licensed from Ralf Bartenschlager, University of Heidelberg) were resuspended to a concentration of 1.4×10^5 cells/ml by addition of pre-warmed medium (DMEM+10% FCS). 50 μl of this suspension was added to each well of a 384-well assay plate (Lumitrac, Greiner) already containing 0.5 μl of test compound.
All plates were covered with gas permeable seals and incubated at 37° C., 5% CO2 for 48 hours. After 48 hours, the plate was removed from the incubator and left to cool to room temperature for 15-30 mins. 35 ul of reconstituted Lyophilised Britelite Plus Substrate (PerkinElmer, 6016767) to medium was added to each well. Luminescence was read after 1 min but before 15 mins on an EnVision (Perkin Elmer) plate reader. The half maximal effective concentration (1050) values were calculated by constructing log concentration-response curves for each compound.

Where [1] appears, read: geometric mean, 95% confidence intervals in parentheses, 48 hours, medium with 10% FCS.
Where [2] appears, read: Hepatitis C virus, geometric mean, 95% confidence intervals in parentheses, 48 hours, medium with 10% FCS.

Structures are written as SMILES. Structures can show the parent of a compound that is named as a salt. Where two headings read alike, the source gives them in different places.

As a reminder, the IC50 is the concentration that inhibits the measured activity by half.

On to `CCC[C@@H](NC(=O)OC)C(=O)N1CCC[C@H]1c1ncc(-c2ccc3nc(-c4ccc(-c5c[nH]c([C@@H]6CCCN6C(=O)[C@@H](NC(=O)OC)C(C)C)n5)cc4)cnc3c2)[nH]1` [Example 77, Methyl {(2R)-1-[(2S)-2-{5-[2-(4-{2-[(2S)-1-{(2S)-2-[(methoxycarbonyl)amino]-3-methylbutanoyl}pyrrolidin-2-yl]-1H-imidazol-4-yl}phenyl)quinoxalin-6-yl]-1H-imidazol-2-yl}pyrrolidin-1-yl]-1-oxopentan-2-yl}carbamate trifluoroacetic acid salt], for which the IC50 in the experiment with 1a-H77 replicon cells (Hepatitis C virus, 48 h) is 186 pM; with 1b (con1) replicon cells (Hepatitis C virus, 48 h), 31.4 pM.
Turning to `COC(=O)N[C@H](C(=O)N1CCC[C@H]1c1nc(-c2ccc(-c3cnc4cc(-c5cnc([C@@H]6CCCN6C(=O)CNC(=O)c6[nH]nc7ccccc67)[nH]5)ccc4n3)cc2)c[nH]1)C(C)C` [Example 44, Methyl {(2S)-1-[(2S)-2-(4-{4-[6-(2-{(2S)-1-[N-(2H-indazol-3-ylcarbonyl)glycyl]pyrrolidin-2-yl}-1H-imidazol-5-yl)quinoxalin-2-yl]phenyl}-1H-imidazol-2-yl)pyrrolidin-1-yl]-3-methyl-1-oxobutan-2-yl} carbamate trifluoroacetic acid salt], the IC50 was 3510 pM in the experiment with 1a-H77 replicon cells (setting [1]) and 100 pM with 1b (con1) replicon cells (setting [1]).
Regarding `COC(=O)N[C@H](C(=O)N1CCC[C@H]1c1ncc(-c2ccc3cc(-c4cnc(-c5cnc([C@@H]6CCCN6C(=O)[C@@H](NC(=O)OC)C(C)C)[nH]5)cn4)ccc3c2)[nH]1)C(C)C` [Example 24, Methyl {(2S)-1-[(2S)-2-{5-[6-(5-{2-[(2S)-1-{(2S)-2-[(methoxycarbonyl)amino]-3-methylbutanoyl}pyrrolidin-2-yl]-1H-imidazol-4-yl}pyrazin-2-yl)naphthalen-2-yl]-1H-imidazol-2-yl}pyrrolidin-1-yl]-3-methyl-1-oxobutan-2-yl}carbamate], the values for the IC50 in the experiment with 1a-H77 replicon cells (setting [2]) and in the experiment with 1b (con1) replicon cells (setting [2]) were 19900 pM and 2010 pM, respectively.
`COC(=O)N[C@H](C(=O)N1CCC[C@H]1c1nc(-c2ccc(-c3cnc4cc(-c5cnc([C@@H]6CCCN6C(=O)[C@@H](COC(C)(C)C)NC(=O)OC)[nH]5)ccc4n3)cc2)c[nH]1)C(C)C` [Example 76, Methyl {(2S)-1-[(2S)-2-{4-[4-(6-{2-[(2S)-1-{(2R)-3-tert-butoxy-2-[(methoxycarbonyl)amino]propanoyl}pyrrolidin-2-yl]-1H-imidazol-5-yl]quinoxalin-2-yl)phenyl]-1H-imidazol-2-yl}pyrrolidin-1-yl]-3-methyl-1-oxobutan-2-yl}carbamate trifluoroacetic acid salt]: the IC50 in the experiment on 1a-H77 replicon cells (Hepatitis C virus, 48 h) was determined as 157 pM; with 1b (con1) replicon cells (Hepatitis C virus, 48 h) it was 58.8 pM.
The corresponding values for `CC[C@H](NC(C)=O)C(=O)N1CCC[C@H]1c1ncc(-c2ccc3nc(-c4ccc(-c5c[nH]c([C@@H]6CCCN6C(=O)[C@@H](NC(=O)OC)C(C)C)n5)cc4)cnc3c2)[nH]1` [Example 39, Methyl {(2S)-1-[(2S)-2-(4-{4-[6-(2-{(2S)-1-[(2S)-2-(acetylamino)butanoyl]pyrrolidin-2-yl}-1H-imidazol-5-yl)quinoxalin-2-yl]phenyl}-1H-imidazol-2-yl)pyrrolidin-1-yl]-3-methyl-1-oxobutan-2-yl}carbamate trifluoroacetic acid salt] are 1240 pM and 48.1 pM.
In the case of `CC[C@@H](NC(C)=O)C(=O)N1CCC[C@H]1c1ncc(-c2ccc3nc(-c4ccc(-c5c[nH]c([C@@H]6CCCN6C(=O)[C@@H](NC(=O)OC)C(C)C)n5)cc4)cnc3c2)[nH]1` [Example 38, Methyl {(2S)-1-[(2S)-2-(4-{4-[6-(2-{(2S)-1-[(2R)-2-(acetylamino)butanoyl]pyrrolidin-2-yl}-1H-imidazol-5-yl)quinoxalin-2-yl]phenyl}-1H-imidazol-2-yl)pyrrolidin-1-yl]-3-methyl-1-oxobutan-2-yl} carbamate trifluoroacetic acid salt], the IC50 with 1a-H77 replicon cells (setting [1]) was 1500 pM; in the experiment on 1b (con1) replicon cells (setting [1]), 71.9 pM.
On to `COC(=O)N[C@H](C(=O)N1CCC[C@H]1c1ncc(-c2ccc(-c3ccc4nc(-c5cnc([C@@H]6CCCN6C(=O)[C@@H](NC(=O)OC)C(C)C)[nH]5)cnc4c3)cc2)[nH]1)C(C)C` [Example 5, Methyl {(2S)-1-[(2S)-2-{5-[4-(2-{2-[(2S)-1-{(2S)-2-[(methoxycarbonyl)amino]-3-methyl-butanoyl}pyrrolidin-2-yl]-1H-imidazol-5-yl}quinoxalin-6-yl)phenyl]-1H-imidazol-2-yl}pyrrolidin-1-yl]-3-methyl-1-oxobutan-2-yl}carbamate], for which the concentration for half-maximal inhibition (IC50) in the experiment on 1a-H77 replicon cells (setting [2]) came to 387 pM; in the experiment with 1b (con1) replicon cells (setting [2]), 8.12 pM.
As for `COC(=O)N[C@H](C(=O)N1CCC[C@H]1c1nc(-c2ccc(-c3cnc4cc(-c5cnc([C@@H]6CCCN6C(=O)C(C)(C)NC(=O)OC)[nH]5)ccc4n3)cc2)c[nH]1)C(C)C` [Example 51, Methyl {(2S)-1-[(2S)-2-{4-[4-(6-{2-[(2S)-1-{2-[(methoxycarbonyl)amino]-2-methylpropanoyl}pyrrolidin-2-yl]-1H-imidazol-5-yl}quinoxalin-2-yl)phenyl]-1H-imidazol-2-yl}pyrrolidin-1-yl]-3-methyl-1-oxobutan-2-yl}carbamate trifluoroacetic acid salt], the half-maximal inhibitory concentration (IC50) worked out at 1850 pM with 1a-H77 replicon cells (Hepatitis C virus, 48 h) and 144 pM in the experiment with 1b (con1) replicon cells (Hepatitis C virus, 48 h).
`COC(=O)N[C@H](C(=O)N1CCC[C@H]1c1nc(-c2cnc(-c3cnc4cc(-c5cnc([C@@H]6CCCN6C(=O)[C@@H](NC(=O)OC)C(C)C)[nH]5)ccc4n3)nc2)c[nH]1)C(C)C` [Example 21, Methyl {(2S)-1-[(2S)-2-{5-[2-(5-{2-[(2S)-1-{(2S)-2-[(methoxycarbonyl)amino]-3-methylbutanoyl}pyrrolidin-2-yl]-1H-imidazol-4-yl}pyrimidin-2-yl)quinoxalin-6-yl]-1H-imidazol-2-yl}pyrrolidin-1-yl]-3-methyl-1-oxobutan-2-yl}carbamate]: the values for the IC50 in the experiment on 1a-H77 replicon cells (setting [2]) and in the experiment with 1b (con1) replicon cells (setting [2]) were 671 pM and 222 pM, respectively.
Take `COC(=O)N[C@H](C(=O)N1CCC[C@H]1c1nc(-c2ccc(-c3cnc4cc(-c5cnc([C@@H]6CCCN6C(=O)[C@H](NC(=O)OC)[C@@H](C)OC(C)(C)C)[nH]5)ccc4n3)cc2)c[nH]1)C(C)C` [Example 75, Methyl {(2S)-1-[(2S)-2-{4-[4-(6-{2-[(2S)-1-{(2R,3R)-3-tert-butoxy-2-[(methoxycarbonyl)amino]butanoyl}pyrrolidin-2-yl]-1H-imidazol-5-yl}quinoxalin-2-yl)phenyl]-1H-imidazol-2-yl}pyrrolidin-1-yl]-3-methyl-1-oxobutan-2-yl}carbamate trifluoroacetic acid salt]: the IC50 amounted to 4190 pM with 1a-H77 replicon cells (Hepatitis C virus, 48 h) and 143 pM with 1b (con1) replicon cells (Hepatitis C virus, 48 h).
Consider `COC(=O)N[C@H](C(=O)N1CCC[C@H]1c1ncc(-c2ccc(-c3cnc4cc(-c5cnc([C@@H]6CCCN6C(=O)[C@@H](NC(=O)OC)C(C)C)[nH]5)cnc4n3)cc2)[nH]1)C(C)C` [Example 14, Methyl {(2S)-1-[(2S)-2-{5-[3-(4-{2-[(2S)-1-{(2S)-2-[(methoxycarbonyl)amino]-3-methyl-butanoyl}pyrrolidin-2-yl]-1H-imidazol-5-yl}phenyl)pyrido[2,3-b]pyrazin-7-yl]-1H-imidazol-2-yl}pyrrolidin-1-yl]-3-methyl-1-oxobutan-2-yl}carbamate], for which the figures for the IC50 in the experiment with 1a-H77 replicon cells (setting [2]) and in the experiment on 1b (con1) replicon cells (setting [2]) were 882 pM and 189 pM, respectively.
For `COC(=O)N[C@H](C(=O)N1CCC[C@H]1c1nc(-c2cnc(-c3cc4ccc(-c5cnc([C@@H]6CCCN6C(=O)[C@@H](NC(=O)OC)C(C)C)[nH]5)cc4cn3)nc2)c[nH]1)C(C)C` [Example 22, Methyl {(2S)-1-[(2S)-2-{4-[2-(7-{2-[(2S)-1-{(2S)-2-[(methoxycarbonyl)amino]-3-methylbutanoyl}pyrrolidin-2-yl]-1H-imidazol-5-yl}isoquinolin-3-yl)pyrimidin-5-yl]-1H-imidazol-2-yl}pyrrolidin-1-yl]-3-methyl-1-oxobutan-2-yl}carbamate], the IC50 with 1a-H77 replicon cells (setting [2]) is 2190 pM; in the experiment on 1b (con1) replicon cells (setting [2]), 152 pM.

The record behind these values is patent US20110112100A1, “Hepatitis C Virus Inhibitors” (priority 2009, published 2011).
